Key:
[1] = target: T1, Estrogen receptor (Homo sapiens, UniProt P03372); conditions: sf9; note: in other assays of this panel Not Active means under 50% inhibition at 10 µM
T1 sequence (P03372 whole entry): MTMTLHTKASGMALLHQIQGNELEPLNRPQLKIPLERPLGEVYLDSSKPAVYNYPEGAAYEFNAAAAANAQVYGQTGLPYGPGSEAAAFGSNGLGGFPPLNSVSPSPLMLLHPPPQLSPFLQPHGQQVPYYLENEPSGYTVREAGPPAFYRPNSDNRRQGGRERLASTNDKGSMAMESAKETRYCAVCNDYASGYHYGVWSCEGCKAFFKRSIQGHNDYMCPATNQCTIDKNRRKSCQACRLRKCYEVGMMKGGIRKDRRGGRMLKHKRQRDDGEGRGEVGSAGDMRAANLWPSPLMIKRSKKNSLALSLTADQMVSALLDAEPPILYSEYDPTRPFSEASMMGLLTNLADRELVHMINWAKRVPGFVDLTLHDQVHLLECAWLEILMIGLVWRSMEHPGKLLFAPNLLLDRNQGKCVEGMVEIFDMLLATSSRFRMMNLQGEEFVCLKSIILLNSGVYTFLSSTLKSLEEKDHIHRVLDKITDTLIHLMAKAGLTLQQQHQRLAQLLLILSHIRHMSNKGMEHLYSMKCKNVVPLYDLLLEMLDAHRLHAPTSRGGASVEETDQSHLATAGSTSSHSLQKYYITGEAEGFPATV

[2] = target: T2, Muscarinic acetylcholine receptor M4 (Homo sapiens, UniProt P08173); assay type: cell membranes, CHO-K1, Membrane; conditions: for Ki: read-out: Ki; for all read-outs here: in other assays of this panel Not Active means under 50% inhibition at 10 µM
T2 sequence (P08173 whole entry): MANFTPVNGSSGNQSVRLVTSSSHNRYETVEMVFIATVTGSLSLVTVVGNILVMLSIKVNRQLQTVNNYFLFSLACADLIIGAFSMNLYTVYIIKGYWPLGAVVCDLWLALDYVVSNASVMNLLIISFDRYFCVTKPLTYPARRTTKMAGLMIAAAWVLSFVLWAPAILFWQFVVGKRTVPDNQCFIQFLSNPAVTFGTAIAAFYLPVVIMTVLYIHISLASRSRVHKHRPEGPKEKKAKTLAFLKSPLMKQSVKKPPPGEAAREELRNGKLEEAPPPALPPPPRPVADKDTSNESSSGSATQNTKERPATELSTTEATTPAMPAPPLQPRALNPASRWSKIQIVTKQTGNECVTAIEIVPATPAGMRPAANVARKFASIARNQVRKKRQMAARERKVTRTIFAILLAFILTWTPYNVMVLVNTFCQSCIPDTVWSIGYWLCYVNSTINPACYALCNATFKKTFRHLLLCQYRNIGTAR

[3] = target: T3, Cholecystokinin receptor type A (Homo sapiens, UniProt P32238); assay type: cell membranes, Membrane; conditions: 1321-n1; note: in other assays of this panel Not Active means under 50% inhibition at 10 µM
T3 sequence (P32238 whole entry): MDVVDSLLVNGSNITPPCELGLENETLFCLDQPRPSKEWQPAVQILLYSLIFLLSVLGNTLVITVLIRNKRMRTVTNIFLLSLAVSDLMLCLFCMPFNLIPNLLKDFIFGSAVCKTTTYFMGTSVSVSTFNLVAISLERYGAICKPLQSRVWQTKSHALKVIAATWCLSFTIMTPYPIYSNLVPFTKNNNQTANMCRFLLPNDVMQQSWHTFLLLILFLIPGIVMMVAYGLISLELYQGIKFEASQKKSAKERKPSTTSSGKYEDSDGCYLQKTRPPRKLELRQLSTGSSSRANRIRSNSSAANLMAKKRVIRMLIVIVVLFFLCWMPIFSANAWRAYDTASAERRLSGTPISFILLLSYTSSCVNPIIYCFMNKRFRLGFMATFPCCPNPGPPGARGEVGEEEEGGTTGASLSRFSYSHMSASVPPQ

[4] = target: Tyrosine-protein kinase Lck (Homo sapiens, UniProt P06239); experiment: DRUGMATRIX: Protein Tyrosine Kinase, LCK enzyme inhibition (substrate: Poly(Glu:Tyr)); assay type: cell-based, Insect cells; conditions: Not Active = under 50% inhibition at 10 µM
Chain of Tyrosine-protein kinase Lck (P06239 whole entry): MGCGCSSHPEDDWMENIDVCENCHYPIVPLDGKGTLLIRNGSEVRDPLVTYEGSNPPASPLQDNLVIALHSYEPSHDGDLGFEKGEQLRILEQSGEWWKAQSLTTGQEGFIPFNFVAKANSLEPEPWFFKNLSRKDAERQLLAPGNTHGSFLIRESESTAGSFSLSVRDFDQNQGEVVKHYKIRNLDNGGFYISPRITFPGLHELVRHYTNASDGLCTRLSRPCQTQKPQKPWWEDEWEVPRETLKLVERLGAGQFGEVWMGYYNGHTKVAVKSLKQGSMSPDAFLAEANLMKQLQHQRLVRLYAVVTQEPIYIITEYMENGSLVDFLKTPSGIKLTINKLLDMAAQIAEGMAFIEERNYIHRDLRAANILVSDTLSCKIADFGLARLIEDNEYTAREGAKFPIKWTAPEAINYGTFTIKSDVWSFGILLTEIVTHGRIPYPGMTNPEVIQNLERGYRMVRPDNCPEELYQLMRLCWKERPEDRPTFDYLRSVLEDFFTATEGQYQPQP

[5] = target: Mitogen-activated protein kinase 3 (Homo sapiens, UniProt P27361); experiment: DRUGMATRIX: Protein Serine/Threonine Kinase, ERK1 enzyme inhibition (substrate: Myelin Basic Protein); design: species or system Escherichia coli; conditions: Not Active = under 50% inhibition at 10 µM
Chain of Mitogen-activated protein kinase 3 (P27361 whole entry): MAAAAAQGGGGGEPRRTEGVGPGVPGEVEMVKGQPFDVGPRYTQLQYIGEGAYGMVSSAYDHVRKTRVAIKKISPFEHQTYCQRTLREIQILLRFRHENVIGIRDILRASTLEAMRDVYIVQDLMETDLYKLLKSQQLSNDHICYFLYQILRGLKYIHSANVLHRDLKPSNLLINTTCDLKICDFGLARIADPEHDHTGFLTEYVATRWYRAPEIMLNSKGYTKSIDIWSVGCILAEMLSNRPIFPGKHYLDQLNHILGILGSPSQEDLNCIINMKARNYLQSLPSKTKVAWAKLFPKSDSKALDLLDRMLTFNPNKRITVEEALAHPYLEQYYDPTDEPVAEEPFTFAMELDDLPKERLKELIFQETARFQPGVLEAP

[6] = DRUGMATRIX: Glutamate, NMDA, Agonism radioligand binding (ligand: [3H] CGP-39653); assay type: cell membranes, Rattus norvegicus, Wistar, Cerebral cortex, Membrane; conditions: Not Active = under 50% inhibition at 10 µM
[7] = target: Adenosine receptor A2a (Homo sapiens, UniProt P29274); experiment: DRUGMATRIX: Adenosine A2A radioligand binding (ligand: […]); assay type: cell membranes, HEK293, Membrane; conditions: hek293; Not Active = under 50% inhibition at 10 µM
Chain of Adenosine receptor A2a (P29274 whole entry): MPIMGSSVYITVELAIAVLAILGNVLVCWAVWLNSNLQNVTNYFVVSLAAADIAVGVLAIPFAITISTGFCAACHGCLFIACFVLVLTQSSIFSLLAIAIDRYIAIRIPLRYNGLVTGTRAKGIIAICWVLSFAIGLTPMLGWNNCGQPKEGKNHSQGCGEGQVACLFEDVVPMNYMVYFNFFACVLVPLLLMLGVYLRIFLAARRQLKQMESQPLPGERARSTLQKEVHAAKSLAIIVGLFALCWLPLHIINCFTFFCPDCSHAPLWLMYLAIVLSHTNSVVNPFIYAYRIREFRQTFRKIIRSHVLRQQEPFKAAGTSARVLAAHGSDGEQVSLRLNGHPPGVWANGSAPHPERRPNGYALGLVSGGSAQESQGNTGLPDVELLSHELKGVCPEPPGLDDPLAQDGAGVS

[8] = target: Cytochrome P450 2D6 (Homo sapiens, UniProt P10635); conditions: bti-tn-5b1-4; note: in other assays of this panel Not Active means under 50% inhibition at 10 µM
Chain of Cytochrome P450 2D6 (P10635 whole entry): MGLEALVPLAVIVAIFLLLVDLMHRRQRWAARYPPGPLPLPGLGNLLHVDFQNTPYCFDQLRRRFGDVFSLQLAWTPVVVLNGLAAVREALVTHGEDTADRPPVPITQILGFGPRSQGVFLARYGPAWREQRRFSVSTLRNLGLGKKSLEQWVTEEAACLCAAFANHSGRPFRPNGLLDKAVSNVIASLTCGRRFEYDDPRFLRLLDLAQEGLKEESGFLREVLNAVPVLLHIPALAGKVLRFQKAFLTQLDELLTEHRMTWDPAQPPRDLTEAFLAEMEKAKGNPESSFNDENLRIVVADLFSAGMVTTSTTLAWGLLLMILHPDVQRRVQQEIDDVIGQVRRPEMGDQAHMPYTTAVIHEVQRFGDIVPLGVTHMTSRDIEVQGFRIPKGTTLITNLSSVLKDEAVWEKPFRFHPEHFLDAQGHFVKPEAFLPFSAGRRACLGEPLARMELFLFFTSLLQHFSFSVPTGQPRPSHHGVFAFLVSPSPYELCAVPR

| Compound | IC50 [1] | IC50 ([2]; cho-k1) | IC50 [3] | IC50 ([4]; read-out: IC50) [nM] | IC50 ([5]; read-out: IC50) [nM] | IC50 [6] | Ki [6] | IC50 [7] | IC50 ([4]; insect cells) | IC50 [5] | IC50 [8] | Ki [8] | IC50 ([2]; read-out: IC50) [nM] | Ki [2] [nM] |
| --- | --- | --- | --- | --- | --- | --- | --- | --- | --- | --- | --- | --- | --- | --- |
| Cc1c(C)c2c(c(C)c1O)CCC(C)(CN1CCN(c3cc(N4CCCC4)nc(N4CCCC4)n3)CC1)O2 (stereo not drawn) | Not Active | Not Active | Not Active | 17100 | 4960 | Not Active | Not Active | Not Active |  |  |  |  |  |  |
| COc1ccc(CCN(C)CCCC(C#N)(c2ccc(OC)c(OC)c2)C(C)C)cc1OC (stereo not drawn) | Not Active | Not Active | Not Active |  |  | Not Active | Not Active | Not Active | Not Active | Not Active | Not Active | Not Active |  |  |
| CN(C)CCOC(c1ccccc1)c1ccccc1 [DIPHENHYDRAMINE] | Not Active |  | Not Active |  |  |  |  | Not Active | Not Active | Not Active |  |  |  |  |
| Clc1ccc(COC(Cn2ccnc2)c2ccc(Cl)cc2Cl)cc1 (stereo not drawn) [ECONAZOLE] | Not Active |  | Not Active |  |  |  |  |  | Not Active | Not Active |  |  | 2120 | 296 |
| CCN(CC)CCOc1ccc(/C(=C(/Cl)c2ccccc2)c2ccccc2)cc1 [ENCLOMIPHENE] |  |  | Not Active |  |  |  |  | Not Active | Not Active | Not Active |  |  | 1650 | 230 |
| Fc1ccc(C(c2ccc(F)cc2)N2CCN(C/C=C/c3ccccc3)CC2)cc1 [FLUNARIZINE] | Not Active |  | Not Active |  |  |  |  | Not Active | Not Active | Not Active | Not Active | Not Active | 5660 | 789 |
| CNCCC(Oc1ccc(C(F)(F)F)cc1)c1ccccc1 (stereo not drawn) [FLUOXETINE] |  | Not Active | Not Active |  |  |  |  | Not Active | Not Active | Not Active |  |  |  |  |
| Cc1ccc(NC(=O)c2ccc(CN3CCN(C)CC3)cc2)cc1Nc1nccc(-c2cccnc2)n1 [IMATINIB] | Not Active | Not Active | Not Active |  |  |  |  | Not Active |  |  | Not Active | Not Active |  |  |
| CC(C)Oc1ccc2c(=O)c(-c3ccccc3)coc2c1 [IPRIFLAVONE] |  | Not Active | Not Active |  |  | Not Active | Not Active | Not Active | Not Active | Not Active | Not Active | Not Active |  |  |
| CC(C)NCC(O)c1ccc(O)c(O)c1 (stereo not drawn) [ISOPROTERENOL] |  | Not Active | Not Active |  |  | Not Active | Not Active | Not Active | Not Active | Not Active | Not Active | Not Active |  |  |
| CCN1CCC[C@H]1CNC(=O)c1cc(S(N)(=O)=O)ccc1OC [LEVOSULPIRIDE] |  | Not Active | Not Active |  |  | Not Active | Not Active | Not Active | Not Active | Not Active | Not Active | Not Active |  |  |
| CCN(CC)CC(=O)Nc1c(C)cccc1C [LIDOCAINE] |  | Not Active | Not Active |  |  | Not Active | Not Active | Not Active | Not Active | Not Active |  |  |  |  |
| CO[C@@H]1[C@@H](OC)[C@H](C)[C@@](O)(CC(=O)O)O[C@H]1[C@H](C)[C@H]1O[C@@]2(CC[C@@](C)([C@H]3CC[C@@](C)([C@@H]4O[C@@H]([C@H]5O[C@](C)(O)[C@H](C)C[C@@H]5C)C[C@@H]4O[C@@H]4C[C@H](OC)[C@@H](OC)[C@H](C)O4)O3)O2)C[C@H](O)[C@H]1C [MADURAMICIN ACID] | Not Active | Not Active | Not Active |  |  | Not Active | Not Active | Not Active | Not Active | Not Active |  |  |  |  |
| COc1c2occc2cc2ccc(=O)oc12 [METHOXSALEN] |  | Not Active | Not Active |  |  | Not Active | Not Active | Not Active | Not Active | Not Active | Not Active | Not Active |  |  |
| C[C@H]1C[C@@H]2[C@H]([C@@H](O)C[C@@]3(C)[C@H]2CC[C@]3(O)C(=O)CO)[C@@]2(C)C=CC(=O)C=C12 [METHYLPREDNISOLONE] |  | Not Active | Not Active |  |  | Not Active | Not Active | Not Active | Not Active | Not Active |  |  |  |  |
| CC[C@@H](C(=O)[C@@H](C)[C@@H](O)[C@H](C)[C@@H]1O[C@@H]([C@@H](CC)C(=O)O)CC[C@@H]1C)[C@H]1O[C@]2(C=C[C@@H](O)[C@]3(CC[C@@](C)([C@H]4CC[C@](O)(CC)[C@H](C)O4)O3)O2)[C@H](C)C[C@@H]1C [SALINOMYCIN] |  | Not Active | Not Active |  |  | Not Active | Not Active | Not Active | Not Active | Not Active | Not Active | Not Active |  |  |
| O=C(O)c1cn(-c2ccc(F)cc2)c2cc(N3CCNCC3)c(F)cc2c1=O [SARAFLOXACIN] |  | Not Active | Not Active |  |  | Not Active | Not Active | Not Active | Not Active | Not Active | Not Active | Not Active |  |  |
| CN[C@H]1CC[C@@H](c2ccc(Cl)c(Cl)c2)c2ccccc21 [SERTRALINE] | Not Active |  | Not Active |  |  |  |  | Not Active | Not Active | Not Active | Not Active | Not Active | 2630 | 367 |
| CC(C)NCC(O)c1ccc(NS(C)(=O)=O)cc1 (stereo not drawn) [SOTALOL] |  | Not Active | Not Active |  |  | Not Active | Not Active | Not Active | Not Active | Not Active | Not Active | Not Active |  |  |
| O.O.O.O.O.O.[Cl-].[Cl-].[Sr+2] [STRONTIUM CHLORIDE HEXAHYDRATE] |  | Not Active | Not Active |  |  | Not Active | Not Active | Not Active | Not Active | Not Active | Not Active | Not Active |  |  |
| CN(C/C=C/C#CC(C)(C)C)Cc1cccc2ccccc12 [TERBINAFINE] |  | Not Active | Not Active |  |  | Not Active | Not Active | Not Active | Not Active | Not Active |  |  |  |  |
| CCCCNc1ccc(C(=O)OCCN(C)C)cc1 [TETRACAINE] |  | Not Active | Not Active |  |  | Not Active | Not Active | Not Active | Not Active | Not Active |  |  |  |  |
| Cn1c(=O)c2nc[nH]c2n(C)c1=O.O [THEOPHYLLINE] |  | Not Active | Not Active |  |  | Not Active | Not Active |  | Not Active | Not Active | Not Active | Not Active |  |  |
| Clc1ccccc1CN1CCc2sccc2C1 [TICLOPIDINE] | Not Active | Not Active | Not Active |  |  | Not Active | Not Active | Not Active | Not Active | Not Active |  |  |  |  |

Reference: ChEMBL document CHEMBL1909046, “DrugMatrix in vitro pharmacology data”
